Assay results taken from the NIST ThermoML archive (doi:10.1016/j.fluid.2007.11.002).
Where “and” joins values, the source holds several entries; their conditions need not be identical. Equal entries are not always repeated. ± gives the expanded uncertainty stated by the source.

How the values were obtained:
[1] = Liquid, Ebulliometric method (Recirculating still)
[2] = refractive index (Na D-line) (dimensionless); conditions: 298.15 K; 101.33 kPa; Liquid; Standard Abbe refractometry

| SMILES | vapor or sublimation pressure ([1]; 323.15 K) | vapor or sublimation pressure ([1]; 333.15 K) | vapor or sublimation pressure ([1]; 335.85 K) | vapor or sublimation pressure ([1]; 343.15 K) | vapor or sublimation pressure ([1]; 353.15 K) | vapor or sublimation pressure ([1]; 354.65 K) | vapor or sublimation pressure ([1]; 363.15 K) | vapor or sublimation pressure ([1]; 366.95 K) | vapor or sublimation pressure ([1]; 374.45 K) | Normal boiling temperature [1] | refractive index [2] | vapor or sublimation pressure ([1]; 325.05 K) | vapor or sublimation pressure ([1]; 340.05 K) | vapor or sublimation pressure ([1]; 349.75 K) | vapor or sublimation pressure ([1]; 355.55 K) |
| --- | --- | --- | --- | --- | --- | --- | --- | --- | --- | --- | --- | --- | --- | --- | --- |
| C1COCCO1 [1,4-dioxane] | 15.93 ± 0.36 kPa | 23.94 ± 0.44 kPa and 24 ± 0.42 kPa | 26.66 ± 0.44 kPa | 35.19 ± 0.59 kPa and 35.11 ± 0.54 kPa and 35.2 ± 0.54 kPa | 50.78 ± 0.8 kPa and 50.41 ± 0.68 kPa and 50.53 ± 0.68 kPa | 53.33 ± 0.8 kPa | 70.91 ± 0.88 kPa | 79.99 ± 1 kPa | 101.33 ± 1.1 kPa | 101.30 ± 0.22 °C | 1.4205 ± 0.0012 | – | – | – | – |
| CC(C)(C)O [2-methylpropan-2-ol] | 24.4 ± 0.48 kPa | 39.06 ± 0.62 kPa | – | 60.93 ± 0.89 kPa | 92.26 ± 1.2 kPa | – | – | – | – | 82.40 ± 0.22 °C | 1.3823 ± 0.0012 | 26.66 kPa | 53.33 kPa | 79.99 kPa | 101.33 kPa |
| CC(C)CO [2-methyl-1-propanol] | – | 12.5 ± 0.34 kPa | – | 20.35 ± 0.4 kPa | 32.25 ± 0.55 kPa and 32.19 ± 0.5 kPa | – | – | – | – | 107.90 ± 0.22 °C | 1.3939 ± 0.0012 | – | – | – | – |
| CCC(C)O (stereo not given) [butan-2-ol] | – | – | – | 29.86 ± 0.59 kPa | – | – | 70.25 ± 0.9 kPa | – | – | 99.50 ± 0.22 °C | 1.3955 ± 0.0012 | – | – | – | – |
